Assay results as given in US6372501B1, “Glucose responsive β-cell line” (Aberdeen University, priority 1997, dated 2002).
Entries after “also recorded” stand apart in the source; their conditions may differ. Where two headings read alike, the source gives them in different places.

Assays:
[1] = tested on: voltage-gated Ca2+ channels; assay type: cell-based, human
[2] = tested on: voltage-gated Ca2+ channels; assay type: cell-based, human; remark: listed apart in the source
untransfected cells = details: 800 μg/ml G418 (data not shown)
KATP channels [3] = biological target: T1, KATP channels (Homo sapiens, UniProt Q09428+Q14654); experiment: Patch-clamp recording of KATP channels in control human β-cells; assay type: cell-based; details: cell attached configuration, diazoxide 500 μM, tolbutamide 200 μM
T1 construct: primary cultured human islet cells (control); endogenous in cells; host or cells: primary cultured human islet beta-cells
Description: (In the record shown, the maximum number of coincident open ion channel events is increased from 3 to 30). Under the same experimental conditions none of these agents had any action on ion channel events in the NES 2Y β-cells. Similar data were obtained in 4 (panel A) and 18 (panel B) other control experiments, and in a total of N=10 (panel A) and n=10 (panel B) NES 2Y β-cells experiments. Note that upward deflections represent outward current events, and that the broken lines indicate the zero current level which corresponds to closure of all K^+ channels. The same ionic gradients were used for each of the experimental protocols described, and all data are plotted to the same scales in each panel.
(§1) All data were obtained from either primary cultured human islet cells (control) or from NES 2Y β-cells(transfected and untransfected) by patch-clamp techniques.
(§2) Standard KCl- and NaCl-rich solutions were used in all electophysiology recordings to provide quasi-physiological cationic gradients. Procedures used for data collection and analysis were described previously.

KATP channels [4] = experiment: Patch-clamp recording of KATP channels in NES 2Y β-cells; assay type: cell-based, human; details: intact cells (diazoxide 0.5 mM) or cell-free patches (cocktail)
[5] = tested on: recombinant KATP channels; experiment: Patch-clamp recording of recombinant KATP channels in NISK 9 β-cells; assay type: cell-based, human; details: for effect on K+ channel in inside-out patch: NISK 9 β-cell, same inside-out patch, ATP 500 μM, diazoxide 500 μM in the presence of ATP, tolbutamide 250 μM, efaroxan 200 μM; for effect on recombinant KATP channels: NISK 9 β-cells, cell attached (n=4) and inside-out patch (n=5); for effect of nucleotides on recombinant KATP channels: ADP in the presence of inhibitory concentration of ATP
Protocol: In panel A, all data come from the same inside-out patch recording. […] When recorded using symmetrical 140 mM KCl-rich solutions on either side of the cell membrane the channel has an inwardly-retifying relationship, with an estimated inward current conductance of approximately 70 pS. See also claim 11 hereinafter.
Panels A and B were obtained under the same conditions as illustrated in FIG. 9. […] In panel B, tolbutamide is shown to inhibit diazoxide-activated KATP channels in an inside-out patch; note that when this configuration is used, ATP must be added to the inside face of the cell membrane to facilitate diazoxide-induced K^+ channel activation. Mean data from several experiments are also illustrated in panels A and B. See also claim 11 hereinafter.
All data comes from the same membrane recording: an inside-out patch record obtained from a NISK 9 β-cell. […] Closure of KATP channels was also associated with a rise in the cytosolic concentration ([Ca^2+]1), not shown. Thus, the Δ[Ca^2+]1 for tolbutamide was found, on average to be 158+/−24 nM (n=22), and for efaroxan 195+/−40 nM (n=12). See also claim 11 hereinafter.
as §1, §2

NISK 9 β-cells [6] = experiment: Ca2+ microfluorimetry (fura-2) in NISK 9 β-cells; assay type: cell-based, human; details: for effect on cytosolic Ca2+ ([Ca2+]i): glucose n=8, n=22, KCl 40 mM n=22; for Δ[Ca2+]i, rise in the cytosolic concentration: average, tolbutamide n=22, efaroxan n=12
Protocol: (§3) Ca^2+ microfluorimetry experiments were performed with fura-2-loaded cells and intact islets as described previously.

NES 2Y β-cells [7] = experiment: Ca2+ microfluorimetry (fura-2) in NES 2Y β-cells; assay type: cell-based, human; details: KCl 40 mM, tolbutamide 0.2 mM, glucose 20 mM
Protocol: as §3

NES 2Y β-cells [8] = experiment: Insulin release (radioimmunoassay) from NES 2Y β-cells; assay type: cell-based, human; details: 40 mM KCl, 0.2 mM tolbutamide, glucose
Protocol: (§4) Insulin was measured by radioimmunoassay using an anti-human insulin antibody (Linco, UK) and ^125I-human insulin, as previously described.

NISK 9 β-cells [9] = experiment: Insulin release (radioimmunoassay) from NISK 9 β-cells; assay type: cell-based, human; details: glucose 0.5-16 mM, KCl 40 mM, tolbutamide 0.2 mM
Protocol: NISK 9 cells (NES 2Y cells stably transfected with IUF1, Sur1 and Kir 6.2) were preincubated for 180 minutes in media containing 0.5 mM glucose. The media was then replaced with that containing the indicated concentrations of glucose, and the media samples assayed for insulin by radioimmunoassay after a further 60 minutes incubation. The data are presentative of two experiments, and show the mean +/− standard deviation of 6 separate determinations. The NISK9 cell line is shown to secrete insulin in response to changes in glucose in the physiological concentration range.
as §4

[10] = tested on: voltage-gated Na+ channels; assay type: cell-based, human
[11] = tested on: voltage-gated Na+ channels; assay type: cell-based, human; remark: listed apart in the source

T1 sequence (Q09428 whole entry): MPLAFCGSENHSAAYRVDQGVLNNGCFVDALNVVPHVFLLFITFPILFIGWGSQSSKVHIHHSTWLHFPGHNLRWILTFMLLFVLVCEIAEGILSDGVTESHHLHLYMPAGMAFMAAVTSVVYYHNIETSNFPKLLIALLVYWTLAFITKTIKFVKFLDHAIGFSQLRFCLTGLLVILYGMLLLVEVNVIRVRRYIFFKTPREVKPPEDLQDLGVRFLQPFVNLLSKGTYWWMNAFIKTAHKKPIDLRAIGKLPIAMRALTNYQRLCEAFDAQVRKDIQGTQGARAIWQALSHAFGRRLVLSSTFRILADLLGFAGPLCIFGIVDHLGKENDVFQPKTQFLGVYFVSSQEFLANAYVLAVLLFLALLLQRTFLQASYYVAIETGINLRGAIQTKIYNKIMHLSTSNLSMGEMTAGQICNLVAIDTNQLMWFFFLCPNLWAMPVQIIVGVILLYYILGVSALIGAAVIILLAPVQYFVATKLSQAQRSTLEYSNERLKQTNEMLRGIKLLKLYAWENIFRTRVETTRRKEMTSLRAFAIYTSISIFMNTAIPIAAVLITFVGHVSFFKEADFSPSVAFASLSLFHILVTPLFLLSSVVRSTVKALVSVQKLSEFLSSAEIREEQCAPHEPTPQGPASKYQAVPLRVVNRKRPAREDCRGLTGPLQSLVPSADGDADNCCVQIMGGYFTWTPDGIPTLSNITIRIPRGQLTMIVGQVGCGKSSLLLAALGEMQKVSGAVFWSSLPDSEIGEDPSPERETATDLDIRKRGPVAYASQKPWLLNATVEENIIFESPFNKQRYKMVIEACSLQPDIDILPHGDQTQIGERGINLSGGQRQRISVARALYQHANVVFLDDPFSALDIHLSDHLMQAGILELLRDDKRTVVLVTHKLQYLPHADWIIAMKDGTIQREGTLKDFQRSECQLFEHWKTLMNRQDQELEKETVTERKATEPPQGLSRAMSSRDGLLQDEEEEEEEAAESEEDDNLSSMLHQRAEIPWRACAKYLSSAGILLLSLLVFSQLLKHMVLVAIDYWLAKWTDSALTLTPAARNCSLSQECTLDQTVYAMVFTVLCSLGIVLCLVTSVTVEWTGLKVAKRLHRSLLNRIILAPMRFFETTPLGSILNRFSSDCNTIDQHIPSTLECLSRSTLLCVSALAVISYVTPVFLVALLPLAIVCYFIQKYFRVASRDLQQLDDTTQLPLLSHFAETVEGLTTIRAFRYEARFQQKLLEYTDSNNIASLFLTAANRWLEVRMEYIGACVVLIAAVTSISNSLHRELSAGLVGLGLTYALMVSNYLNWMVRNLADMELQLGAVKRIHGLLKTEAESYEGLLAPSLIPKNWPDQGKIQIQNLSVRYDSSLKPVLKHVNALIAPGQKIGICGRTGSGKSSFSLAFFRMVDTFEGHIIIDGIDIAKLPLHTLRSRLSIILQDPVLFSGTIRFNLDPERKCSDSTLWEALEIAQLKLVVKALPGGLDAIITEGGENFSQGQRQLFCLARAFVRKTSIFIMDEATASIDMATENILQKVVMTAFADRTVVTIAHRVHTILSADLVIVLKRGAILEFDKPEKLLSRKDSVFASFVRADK
T1 sequence (Q14654 whole entry): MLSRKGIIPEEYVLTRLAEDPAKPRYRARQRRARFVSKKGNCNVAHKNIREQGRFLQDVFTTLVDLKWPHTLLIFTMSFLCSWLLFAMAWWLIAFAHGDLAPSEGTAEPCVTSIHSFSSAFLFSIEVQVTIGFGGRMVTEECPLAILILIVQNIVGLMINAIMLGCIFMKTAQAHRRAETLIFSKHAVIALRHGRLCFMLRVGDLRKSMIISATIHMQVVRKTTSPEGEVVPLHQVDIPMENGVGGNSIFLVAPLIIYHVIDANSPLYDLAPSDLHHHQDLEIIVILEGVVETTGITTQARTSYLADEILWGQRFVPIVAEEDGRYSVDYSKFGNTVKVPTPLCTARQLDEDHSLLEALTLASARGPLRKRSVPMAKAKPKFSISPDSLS

## COC(=O)C1=C(C)NC(C)=C([N+](=O)[O-])C1c1ccccc1C(F)(F)F (racemic) [(+/−) BAY K-8644]
[1]
  effect on Ttx-insensitive currents: activation
[2]
  effect on Ttx-insensitive currents: activation

## CN[C@@H]1[C@@H](O)[C@@H](O[C@@H]2[C@@H](O)[C@H](O[C@H]3O[C@H]([C@@H](C)O)[C@@H](O)[C@H](O)[C@H]3N)[C@@H](N)C[C@H]2N)OC[C@]1(C)O [G418]
Untransfected cells
  time to toxic cell death: ≤ 12 h

## CC1=NS(=O)(=O)c2cc(Cl)ccc2N1 [diazoxide]
KATP channels [3]
  effect on spontaneously open KATP channels: activated
KATP channels [4]
  effect on KATP channel activity / ion channel events: no response
[5]
  effect on K+ channel in inside-out patch: activation
  effect on recombinant KATP channels: activated
NISK 9 β-cells [6]; n=5
  effect on the glucose-induced rise in [Ca2+]i: inhibited

## [Cl-].[K+] [KCl]
NES 2Y β-cells [7]
  effect on cytosolic Ca2+ ([Ca2+]i): no elevation of [Ca^2+]i
NISK 9 β-cells [6]
  effect on cytosolic Ca2+ ([Ca2+]i): raise [Ca^2+]i
NES 2Y β-cells [8]
  insulin release: fail to release insulin
NISK 9 β-cells [9]
  insulin secretion: regulated insulin secretion

## CCC1(C2=NCCN2)Cc2ccccc2O1 (stereo not drawn) [efaroxan]
[5]
  effect on K+ channel in inside-out patch: channel inhibition
[5]; isolated patches, 0.2 mM efaroxan, n=3
  KATP channel activity remaining, % of the immediate control value: 8.5±5.6%
NISK 9 β-cells [6]
  Δ[Ca2+]i, rise in the cytosolic concentration: 195 ± 40 nM

## CCCCNC(=O)NS(=O)(=O)c1ccc(C)cc1 [tolbutamide]
KATP channels [3]
  effect on spontaneously open KATP channels: inhibited
[5]
  effect on K+ channel in inside-out patch: channel inhibition
  effect on recombinant KATP channels: inhibited
[5]; isolated patches, 0.25 mM tolbutamide, n=3
  KATP channel activity remaining, % of the control value: 40.8±8.5%
NES 2Y β-cells [7]
  effect on cytosolic Ca2+ ([Ca2+]i): no elevation of [Ca^2+]i
NISK 9 β-cells [6]
  Δ[Ca2+]i, rise in the cytosolic concentration: 158 ± 24 nM
  effect on cytosolic Ca2+ ([Ca2+]i): raise [Ca^2+]i
NES 2Y β-cells [8]
  insulin release: fail to release insulin
NISK 9 β-cells [9]
  insulin secretion: regulated insulin secretion

## NC1=N[C@H](O)[C@H]2[C@H]3O[C@]4(O)O[C@@H]([C@@H](O)[C@@]2(N1)[C@@H]4O)[C@]3(O)CO [tetrodotoxin]
[10]
  effect on voltage-gated currents: inhibition
[11]
  effect on voltage-gated currents: inhibition

## Nc1ncnc2c1ncn2[C@@H]1O[C@H](COP(=O)(O)OP(=O)(O)O)[C@@H](O)[C@H]1O [ADP]
[5]; NISK β-cells, inside-out patch
  effect of nucleotides on recombinant KATP channels: activated; also recorded: reversible recovery from closure

## Nc1ncnc2c1ncn2[C@@H]1O[C@H](COP(=O)(O)OP(=O)(O)OP(=O)(O)O)[C@@H](O)[C@H]1O [ATP]
[5]
  effect on K+ channel in inside-out patch: channel block
[5]; NISK β-cells, inside-out patch, ATP 0.005-1 mM, n=4, read-out: 50% inhibition of KATP channels
  IC50: 5 to 10 µM
[5]; NISK β-cells, inside-out patch
  effect of nucleotides on recombinant KATP channels: inhibition of channels
